In article PMC9609429 (Pharmaceuticals, 2022):

Key:
α1-adrenoceptor = α1-adrenoceptor radioligand binding assay ([3H]-prazosin, rat cerebral cortex); conditions: rat cortex tissue
Protocol: (§1) The α1-, α2-, and β1-adrenoceptor radioligand binding assay was carried out on the rat cerebral cortex. [^3H]-prazosin (19.5 Ci/mmol, α1-adrenoceptor), [^3H]-clonidine (70.5 Ci/mmol, α2-adrenoceptor), and [^3H]-CGP-12177 (48 Ci/mmol, β1-adrenergic receptor) were used as specific ligands. The brains were homogenized using ULTRA-TURRAX homogenizer in 10 mL of an ice-cold 50 mM Tris–HCl buffer (pH 7.6). Homogenates were centrifuged at 20,000× g for 20 min (0–4 °C). Next, the cell pellet was resuspended in the Tris–HCl buffer and centrifuged again. Radioligand binding assays were performed in plates (MultiScreen/Millipore). The final incubation mixture (volume 300 μL) consisted of 240 μL of the tissue suspension, 30 μL of radioligand solution, and 30 μL of the buffer containing 7–8 concentrations of the tested compound. […] The incubation was terminated by rapid filtration through Whatman GF/C filters using a vacuum manifold (Millipore). The filters were then washed twice with the assay buffer and placed in scintillation vials with a liquid scintillation cocktail. Radioactivity was measured in a WALLAC 1409 DSA liquid scintillation counter (Perkin Elmer, Waltham, MA, USA). All the assays were made in duplicates and the inhibitory constants (Ki) were estimated.

[1] = system: adrenaline-induced arrhythmia in rats; experiment: Prophylactic antiarrhythmic activity in adrenaline-induced arrhythmia; type: in vivo, rat
Protocol: The experiment was carried out according to the method described by Szekeres and Papp. Normotensive rats were anesthetized with thiopental (75 mg/kg ip). Adrenaline was administered at the dose of 20 µg/kg to induce heart rhythm disturbances. The studied compound was injected intraperitoneally 45 min before the arrhythmogen. The electrocardiogram (ECG) was recorded during the first 2 min and in the 5th, 10th, and 15th min after the adrenaline injection. The criterion of prophylactic antiarrhythmic activity was the lack of extrasystoles and inhibition of cardiac arrhythmia in comparison with the control group. The ED50 (a dose producing a 50% inhibition of ventricular contractions) was determined by computer log-probit analysis according to Litchfield and Wilcoxon.

5-HT1A receptors = system: 5-HT1A receptors; design: method as in PMID 34451841; conditions: previous studies; cited from earlier work
α1-adrenergic receptors = experiment: Influence on blood vasopressor response to adrenaline, noradrenaline and methoxamine in rats; type: in vivo; conditions: rat, 1.25 mg/kg iv, 5 min after administration
Protocol: To establish agonistic or antagonistic toward α1-adrenergic receptors, we studied the influence of the studied compound on the pressor response to adrenaline (2 µg/kg), noradrenaline (2 µg/kg), and methoxamine (150 µg/kg). Normotensive rats were anesthetized with thiopental (75 mg/kg ip). The right carotid artery was cannulated with a polyethylene tube filled with heparin solution to allow pressure measurements, using a Datamax apparatus (Columbus Instruments, Columbus, OH, USA). The experiment was carried out after 15 min of the stabilization period. The pressor response to adrenaline, noradrenaline, and methoxamine was measured before (control) and 5 min after the administration of the tested compound.

β1-adrenergic receptor = molecular target: T1, β1-adrenergic receptor (Rattus norvegicus, UniProt P18090); experiment: β1-adrenoceptor radioligand binding assay ([3H]-CGP-12177, rat cerebral cortex)
T1 construct: from tissue; host or cells: rat cerebral cortex homogenate
T1 sequence (P18090 whole entry): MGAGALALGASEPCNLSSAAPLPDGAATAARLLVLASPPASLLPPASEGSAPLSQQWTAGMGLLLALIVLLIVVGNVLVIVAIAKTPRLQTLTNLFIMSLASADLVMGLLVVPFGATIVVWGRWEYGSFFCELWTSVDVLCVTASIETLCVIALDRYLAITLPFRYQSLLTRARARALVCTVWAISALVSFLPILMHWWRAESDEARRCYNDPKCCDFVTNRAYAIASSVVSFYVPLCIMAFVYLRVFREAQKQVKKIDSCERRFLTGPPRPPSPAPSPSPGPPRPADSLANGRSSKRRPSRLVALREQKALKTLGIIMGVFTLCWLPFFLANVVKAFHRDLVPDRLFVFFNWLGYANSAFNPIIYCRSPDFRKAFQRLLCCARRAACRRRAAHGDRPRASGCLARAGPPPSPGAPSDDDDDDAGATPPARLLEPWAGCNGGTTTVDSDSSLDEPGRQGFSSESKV
Protocol: as §1, with “[^3H]-prazosin (19.5 Ci/mmol, α1-adrenoceptor), [^3H]-clonidine (70.5 Ci/mmol, α2-adrenoceptor), and [^3H]-CGP-12177 (48 Ci/mmol, β1-adrenergic receptor) were used as specific ligands.” left out, “Radioactivity was measured in a WALLAC 1409 DSA liquid scintillation counter (Perkin Elmer, Waltham, MA, USA).” left out

α2-adrenoceptor = α2-adrenoceptor radioligand binding assay ([3H]-clonidine, rat cerebral cortex)
Protocol: as §1, with “[^3H]-prazosin (19.5 Ci/mmol, α1-adrenoceptor), [^3H]-clonidine (70.5 Ci/mmol, α2-adrenoceptor), and [^3H]-CGP-12177 (48 Ci/mmol, β1-adrenergic receptor) were used as specific ligands.” left out, “Radioactivity was measured in a WALLAC 1409 DSA liquid scintillation counter (Perkin Elmer, Waltham, MA, USA).” left out

Structure (SMILES): CCC(CN1CCN(c2ccccc2OC)CC1)NCCCOc1c(C)cccc1C.Cl.Cl (centres unmarked) [HBK-10, N-(3-(2,6-dimethylphenoxy)propyl)-1-(4-(2-methoxyphenyl)piperazin-1-yl)butan-2-amine dihydrochloride]
- Adrenergic Receptors—pKi α1 (α1-adrenoceptor): 8.55
- ED50 lower than for carvedilol ([1]; HBK-10 ip vs carvedilol iv): ~3 fold
- Extrasystoles (%) ([1]; rat, 0.0625 mg/kg ip 45 min before adrenaline 20 μg/kg iv): 83.3%
- Extrasystoles (%) ([1]; rat, 0.125 mg/kg ip 45 min before adrenaline 20 μg/kg iv): 50%
- Extrasystoles (%) ([1]; rat, 0.25 mg/kg ip 45 min before adrenaline 20 μg/kg iv): 16.7%
- ED50 ([1]; rat, ip 45 min before adrenaline 20 μg/kg iv, read-out: ED50 (extrasystoles caused by adrenaline)): 0.125 mg/kg
- properties at 5-HT1A receptors (5-HT1A receptors): antagonistic properties
- attenuation of adrenaline pressor response (α1-adrenergic receptors; adrenaline 2 μg/kg): 77.2%
- attenuation of methoxamine pressor response (α1-adrenergic receptors; methoxamine 150 μg/kg): 77.4%
- attenuation of noradrenaline pressor response (α1-adrenergic receptors; noradrenaline 2 μg/kg): 32.5%
- Ki (β1-adrenergic receptor; rat cortex tissue, [3H]-CGP-12177, read-out: Adrenergic Receptors—pKi β1 (converted)): 3.02 µM
- affinity towards β1-adrenoceptor lower compared with the α1 receptor (β1-adrenergic receptor; rat cortex, α1 vs β1): > 1000 fold
- Adrenergic Receptors—pKi α2 (α2-adrenoceptor; rat cortex tissue, [3H]-clonidine): 5.72
- affinity towards α2-adrenoceptor lower compared with the α1 receptor (α2-adrenoceptor; rat cortex, α1 vs α2): over 600 fold
